These results are taken from patent publication US7378397B2 (The Provost, Fellows and Scholars of the College of the …, priority 2000, dated 2008).

The target in assay [1] is TRH receptors in rat cortical membranes. Nature of the assay: radioligand binding to ^3H-3MeHis-TRH-labelled receptors in rat cortex. As to conditions: competition with 6-8 nM ^3H-3MeHis-TRH, Cheng-Prusoff. The protocol:
Evaluation of the ability of TRH, Glp-Asn-ProNH2, and Glp-Asn-ProAMC to bind to ^3H-3MeHis-TRH-labelled receptors in rat cortex: Radioligand binding assays were conducted to investigate the possibility that the two TRH-DE inhibitors might exert their effects by acting independently at TRH receptors in the brain.
Cortex tissue from male Sprague-Dawley rats (250 g) was dissected out, weighed and homogenised in 30 volumes of ice-cold sodium phosphate buffer (0.02 M, pH 7.5). The homogenates were centrifuged at 30,000 g at 4° C. for 30 min. The supernatant was discarded and the pellet was resuspended at 100 mg wet wt/ml in buffer containing 177 μM bacitracin. […] Non-specific binding was defined in the presence of 10 μM TRH.
The statistical significance of differences between behavioural effects of treatments was determined using the Student's t-test or ANOVA, followed by a post-ANOVA test, as indicated. Radioligand binding data were analysed using non-linear curve fitting software (Prism, Graph Pad Software Inc.). IC50 values calculated from competition experiments were converted to Ki values using the Cheng-Prusoff (41) equation Ki=IC50/(1+L/Kd), where L=ligand concentration and Kd=the apparent dissociation constant for [^3H]-[3-MeHis]TRH.

Assay [2] has as its system Male Wistar rats. Briefly: behavioural effects (WDS, locomotion) after i.c.v. administration. The format is in vivo, rat. As to conditions: 30 min. As to the method: Methods: Behavioural studies were conducted using experimentally naïve Male Wistar rats (200-250 g) maintained in a temperature controlled (21° C.), artificially-lighted (12 hr light cycle) room with free access to food and water. Behavioural effects of […] following intra-cerebroventricular (i.c.v.) administration: Animals were implanted with guide cannula aimed at the lateral cerebral ventricles (AP-0.92 mm, ML-1.5 mm, DV-2.6 mm relative to Bregma, atlas of Paxinos & Watson) under halothane anaesthesia. One week following surgery placement of the cannulae was assessed by the ability of a microinjection of angiotensin II (200 ng in 1 μl) to induce drinking behaviour. […] They were then administered either vehicle (1 μl 0.9% saline) or […] (5 μg in 1 μl) followed 1 minute later by vehicle (1 μl 0.9% saline) or TRH (5 μg in 1 μl). One minute after the last i.c.v. injection animals were placed back into the perspex cage and their behaviour monitored by a computer automated tracking system for 30 minutes (Ethovision Pro, Noldus) to provide measures of locomotor activity. Animals were videotaped for subsequent blind analysis of WDS behaviour by a trained observer. A threshold dose of 5 μg TRH was chosen for i.c.v. administration so that if […] enhanced responses to TRH, this would be clearly visible. The statistical significance of differences between behavioural effects of treatments was determined using the Student's t-test or ANOVA, followed by a post-ANOVA test, as indicated. Radioligand binding data were analysed using non-linear curve fitting software (Prism, Graph Pad Software Inc.). IC50 values calculated from competition experiments were converted to Ki values using the Cheng-Prusoff (41) equation Ki=IC50/(1+L/Kd), where L=ligand concentration and Kd=the apparent dissociation constant for [^3[…].

Assay [3] deals with T1, TRH-DE (Sus scrofa, UniProt A0A287AP33).
T1 construct: The inventor purified TRH-DE from porcine brain according to purification procedures previously published by Dr. K. Bauer; from tissue; host or cells: porcine brain (TRH-DE); bovine kidney (DPP-IV, gift from Dr. C. H. Williams)
T1 sequence (A0A287AP33 1-1066): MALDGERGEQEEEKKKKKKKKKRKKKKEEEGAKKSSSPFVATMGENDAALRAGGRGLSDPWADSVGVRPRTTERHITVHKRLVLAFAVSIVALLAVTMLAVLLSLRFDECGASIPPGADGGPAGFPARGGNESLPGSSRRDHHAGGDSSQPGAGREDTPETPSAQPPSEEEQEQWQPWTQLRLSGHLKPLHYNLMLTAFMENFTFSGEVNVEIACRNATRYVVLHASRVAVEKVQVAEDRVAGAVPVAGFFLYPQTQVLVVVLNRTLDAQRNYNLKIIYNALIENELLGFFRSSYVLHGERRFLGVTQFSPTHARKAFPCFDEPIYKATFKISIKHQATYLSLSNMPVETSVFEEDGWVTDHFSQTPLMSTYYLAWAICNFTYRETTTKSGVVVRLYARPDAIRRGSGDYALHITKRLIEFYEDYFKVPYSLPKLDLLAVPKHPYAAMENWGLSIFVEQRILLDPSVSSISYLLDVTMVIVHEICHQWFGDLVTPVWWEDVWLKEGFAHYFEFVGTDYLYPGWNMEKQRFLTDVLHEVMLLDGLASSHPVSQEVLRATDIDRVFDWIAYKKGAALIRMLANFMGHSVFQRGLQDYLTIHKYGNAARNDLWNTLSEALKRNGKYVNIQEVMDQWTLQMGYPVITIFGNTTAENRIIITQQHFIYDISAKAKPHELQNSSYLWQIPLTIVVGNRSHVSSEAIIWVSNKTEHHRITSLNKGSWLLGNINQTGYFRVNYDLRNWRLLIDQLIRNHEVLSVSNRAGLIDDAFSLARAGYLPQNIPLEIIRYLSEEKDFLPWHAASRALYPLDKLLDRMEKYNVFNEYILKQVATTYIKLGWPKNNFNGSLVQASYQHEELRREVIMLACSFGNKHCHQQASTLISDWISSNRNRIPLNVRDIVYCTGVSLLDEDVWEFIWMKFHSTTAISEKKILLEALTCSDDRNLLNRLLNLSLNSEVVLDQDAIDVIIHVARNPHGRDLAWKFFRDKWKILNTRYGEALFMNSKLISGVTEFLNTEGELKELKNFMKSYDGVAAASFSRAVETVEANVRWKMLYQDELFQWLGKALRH
As to conditions: From Ref. 23 (inventor's publication); cited from earlier work.

Assay [4] concerns Male Wistar rats. Nature of the assay: behavioural effects (activity score, WDS, locomotion) after i.p. administration. The format is in vivo, rat. Particulars: i.p. The protocol: Methods: Behavioural studies were conducted using experimentally naïve Male Wistar rats (200-250 g) maintained in a temperature controlled (21° C.), artificially-lighted (12 hr light cycle) room with free access to food and water. Behavioural effects of TRH±TRH-DE inhibitor following intraperitoneal (i.p.) administration: On the day of the experiment, animals were singly housed in perspex cages (30×20×20 cm) and allowed to acclimatize for 20 min. After this period, two baseline measurements of behaviour were made at 10 and 5 min prior to administration of drugs. […] Animals were then observed by two independent observers who were blind to treatment, every 5 min for 30 sec. Blocks of 5 animals were treated at a time, 1 per drug group. Blocks were repeated 5 times. The occurrence of individual behaviours were noted using a behavioural check list, which included grooming, locomotion, rearing, chewing, sniffing, head weave, tail elevation, and/or straub tail and WDS behaviours. These behaviours were summed to yield an overall activity count. Animals were videotaped for separate subsequent analysis of WDS. All WDS behaviours occurring during each 5 min interval after drug administration were counted. The statistical significance of differences between behavioural effects of treatments was determined using the Student's t-test or ANOVA, followed by a post-ANOVA test, as indicated. Radioligand binding data were analysed using non-linear curve fitting software (Prism, Graph Pad Software Inc.). IC50 values calculated from competition experiments were converted to Ki values using the Cheng-Prusoff (41) equation Ki=IC50/(1+L/Kd), where L=ligand concentration and Kd=the apparent dissociation constant for [^3[…].

In assay [5] the target is T1, TRH-DE. Briefly: HPLC assay of peptide hydrolysis by TRH-DE (Glp production). The format is biochemical, porcine. Particulars: for hydrolysis by TRH-DE (release of Glp): 1 mM peptide incubated with TRH-DE 18 h at 37° C., HPLC. As to the method: The inventor purified TRH-DE from porcine brain according to purification procedures previously published by Dr. K. Bauer, (Max-Planck-Institut, Hannover, Germany) (1). TRH-DE was purified almost 20,000 fold. […] Dipeptidyl peptidase IV (DPP-IV) (EC 3.4.14.5), purified from bovine kidney (7.7 mg ml^−1, specific activity of 17.5 U mg^−1 with Gly-ProAMC as substrate), was obtained as a gilt from Dr. C. H. Williams (Queen's University Belfast, U.K). (DPP-IV was used as the coupling enzyme used in the fluorometric assays).
One unit (U) of enzyme activity was defined as that amount catalysing the formation of one μmol of product in one minute under the standard conditions employed. All incubations in the assays described below were carried out in 20 mM potassium phosphate buffer, pH 7.5, at 37° C.
Kinetic analysis of the peptide library using HPLC—The ability of each peptide in the library to act as a TRH-DE substrate was assessed using HPLC. As an initial screen, 1 mM peptide was incubated with 0.8 μg TRH-DE in a total volume of 1 ml for 18 h at 37° C. Control samples were included in which peptide (1 mM) or Glp (0.2 mM-0.8 mM) were incubated under identical conditions in the absence of TRH-DE. TRH-DE activity was terminated by the addition of TFA (0.15% v/v) and samples were then analysed using HPLC as described previously (24). Products resulting from TRH-DE hydrolysis could be separated on a C-18 reverse-phase column (Hypersil, UK) using a linear gradient of 0-70% acetonitrile in 0.08% (v/v) TFA. The concentration of Glp formed by the action of TRH-DE on the peptide library was measured by UV absorbance at 206 nm with a quantitative detection limit of 0.1 mM for a 40 μl injection volume, employing a signal to noise ratio of 10. Following the incubation of each peptide with TRH-DE, evidence of Glp in the sample was taken to indicate that the peptide was a TRH-DE substrate.
The rates of hydrolysis for each of those peptides identified as substrates were then compared by measuring Gip production using microassays with shorter incubation times. In these assays peptide (1 mM) was incubated at 37° C. in a total volume of 100 μl. 0.8-3.2 μg TRH-DE and incubations times of 5 min to 18 h were used routinely. Measurements were made in triplicate. The rate of TRH-OH hydrolysis was also measured by this method.

As usually defined, the pKi is the Ki on a negative log10 scale, so that one unit is a factor of ten. What is called Km is the substrate concentration at which the rate is half of its maximum. In assay [1], `NC(=O)[C@@H]1CCCN1C(=O)[C@H](Cc1cnc[nH]1)NC(=O)[C@@H]1CCC(=O)N1` [Glp-His-ProNH2, L-pyroglutamyl-L-histidyl-L-prolineamide] displayed a pKi of 7.65±0.17. Also, in assay [2] (5 μg alone), the “number of WDS compared with vehicle” value is recorded as “Neither TRH nor Glp-Asn-ProAMC alone produced a significantly greater number of WDS than vehicle”. Further, in assay [2] (TRH 5 μg ± Glp-Asn-ProAMC 5 μg, mean±S.E., n=6), the “number of WDS during the observation period” value was 3.33±1.23 WDS/30 min. Besides, the Km in assay [3] is 35 µM. Besides, in assay [4] (10 mg/kg), the “individual behaviours contributing to the activity score” value was “primarily promoted grooming, sniffing, and chewing behaviours”. The “rat activity scores compared with saline” value in assay [4] (10 mg/kg each, 40 min post injection) is “increase in rat activity scores throughout the 40 min period post injection”. Moreover, in assay [4] (10 mg/kg each, late observation period), the “decline of behavioural responses with time” value is “tended to decline 35 min after i.p. administration”. In addition, the “induction of WDS” value in assay [4] (10 mg/kg, 40 min observation) is “immediate induction of WDS in all animals with the response gradually declining to zero after 40 min”. The entries for the “hydrolysis by TRH-DE (release of Glp)” value in assay [5] and in assay [5] (listed as TRH) were “degraded fully” and “no TRH (RT 8.566 min) remained”, respectively. Moreover, in assay [5] (estimated from HPLC rates of hydrolysis using Vmax=vo{(Km+[S])/[S]}), the Vmax is 2.63 ± 0.26 (11) U mg^−1. The Rate of hydrolysis in assay [5] (peptide 1 mM, 37° C., Glp production by HPLC, mean±S.D.) is 2.54 ± 0.25 (11) U mg^−1.
